The record followed here is patent publication US9675571B2, “Inhibitors of indoleamine 2,3-dioxygenase (IDO)” (BRISTOL-MYERS SQUIBB COMPANY, priority 2013, dated 2017).

Sequence of Human IDO1 (P14902 whole entry): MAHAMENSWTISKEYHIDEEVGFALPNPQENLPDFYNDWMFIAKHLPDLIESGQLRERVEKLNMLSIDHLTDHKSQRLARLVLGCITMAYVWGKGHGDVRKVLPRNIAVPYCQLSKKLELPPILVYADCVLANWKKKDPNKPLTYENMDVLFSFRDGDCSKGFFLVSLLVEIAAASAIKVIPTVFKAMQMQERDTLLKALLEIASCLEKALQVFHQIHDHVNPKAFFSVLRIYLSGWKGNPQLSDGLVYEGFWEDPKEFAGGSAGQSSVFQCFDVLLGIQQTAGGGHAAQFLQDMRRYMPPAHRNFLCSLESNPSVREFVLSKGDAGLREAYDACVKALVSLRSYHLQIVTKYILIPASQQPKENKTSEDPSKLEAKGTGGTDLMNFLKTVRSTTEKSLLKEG

The target of this assay is Human IDO1 (Homo sapiens (Human), UniProt P14902). As to the kind of experiment: IDO Kynurenine Assay with Human IDO1/HEK293 Cells. The class given is cell-based. As to conditions: 20 hours incubation, kynurenine detected with Ehrlich reagent, absorbance at 490 nm, read-out: HEK Human IDO-1 IC50. On the procedure:
Human IDO1/HEK293 cells were seeded at 10,000 cells per 50 uL per well with RPMI/phenol red free media contains 10% FBS in a 384-well black wall clear bottom tissue culture plate (Matrix Technologies LLC) 125 nL of certain concentration of compound was then added to each well using ECHO liquid handling systems. The cells were incubated for 20 hours in 37° C. incubator with 5% CO2.
The compound treatments were stopped by adding Trichloroacetic Acid (Sigma-Aldrich) to a final concentration at 0.2%. The cell plate was further incubated at 50° C. for 30 minute. The equal volume supernatant (20 uL) and 0.2% (w/v) Ehrlich reagent (4-dimethylaminobenzaldehyde, Sigma-Aldrich) in glacial acetic acid were mixed in a new clear bottom 384-well plate. This plate was then incubated at room temperature for 30 minute. The absorbance at 490 nm was measured on Envision plate reader.
Compound IC50 values were calculated using the counts of 500 nM of a reference standard treatment as one hundred percent inhibition, and counts of no compound but DMSO treatment as zero percent inhibition.
Consider `COCCN(Cc1ccc(Cl)cc1)c1ccc([C@H]2C[C@H]2C(=O)O)cc1NC(=O)Nc1ccc(C)cc1` (single isomer, unassigned) [Example 43], for which the IC50 was 88 nM.
`COC(=O)[C@@H]1C[C@@H]1c1ccc(N(CC(C)C)CC(C)C)c([N+](=O)[O-])c1` [Example 1J, (1R,2S)-methyl 2-(4-(diisobutylamino)-3-nitrophenyl) cyclopropanecarboxylate]: the IC50 is 8 nM.
In the case of `CC(C)CN(CC(C)C)c1ccc([C@H]2C[C@H]2C(=O)O)cc1NC(=O)Nc1ccc(C(F)(F)F)cc1` [Example 5, (1R,2S)-2-(4-(diisobutylamino)-3-(3-(4-(trifluoromethyl)phenyl)ureido)phenyl)cyclopropanecarboxylic acid], the IC50 stood at 941 nM.
Take `CC(C)CN(CC(C)C)c1ccc([C@H]2C[C@H]2C(=O)O)cc1NC(=O)Nc1ccc(Cl)c(Cl)c1` [Example 6, (1R,2S)-2-(3-(3-(3,4-dichlorophenyl)ureido)-4-(diisobutylamino)phenyl) cyclopropanecarboxylic acid]: the IC50 was determined as 148 nM.
The value for `CC(C)CN(CC(C)C)c1ccc([C@H]2C[C@H]2C(=O)O)cc1NC(=O)Nc1ccccc1Cl` [Example 9, (1R,2S)-2-(3-(3-(2-chlorophenyl)ureido)-4-(diisobutylamino)phenyl) cyclopropanecarboxylic acid] was 97 nM.
In the case of `Cc1ccc(NC(=O)Nc2cc([C@H]3C[C@H]3C(=O)O)ccc2N(CC(C)C)CC(C)C)c(Cl)c1` [Example 14, (1R,2S)-2-(3-(3-(2-chloro-4-methylphenyl)ureido)-4-(diisobutylamino)phenyl) cyclopropanecarboxylic acid], the IC50 came out at 86 nM.
To `CC(C)CN(CC(C)C)c1ccc([C@H]2C[C@H]2C(=O)O)cc1NC(=O)Nc1ccc(CC#N)cc1` [Example 15, (1R,2S)-2-(3-(3-(4-(cyanomethyl)phenyl)ureido)-4-(diisobutylamino)phenyl) cyclopropanecarboxylic acid] belongs 541 nM; to `Cc1cccc(NC(=O)Nc2cc([C@@H]3C[C@@H]3C(=O)O)ccc2N(CC(C)C)CC(C)C)c1` [Example 19, (1S,2R)-2-(4-(diisobutylamino)-3-(3-(m-tolyl)ureido)phenyl) cyclopropanecarboxylic acid], 442 nM; to `CC(C)CN(CC(C)C)c1ccc([C@@H]2C[C@@H]2C(=O)O)cc1NC(=O)Nc1ccc(C2CC2)cc1` [Example 20, (1S,2R)-2-(3-(3-(4-cyclopropylphenyl)ureido)-4-(diisobutylamino)phenyl) cyclopropanecarboxylic acid], 61 nM.
As for `Cc1cc(NC(=O)Nc2cc([C@H]3C[C@H]3C(=O)O)ccc2N(CC(C)C)CC(C)C)on1` [Example 30, (1R,2S)-2-(4-(diisobutylamino)-3-(3-(3-methylisoxazol-5-yl)ureido)phenyl)cyclopropanecarboxylic acid], the IC50 came to 6 nM.
With `Cc1cc(NC(=O)Nc2cc([C@@H]3C[C@@H]3C(=O)O)ccc2N(CC(C)C)CC(C)C)on1` [Example 31, (1S,2R)-2-(4-(diisobutylamino)-3-(3-(3-methylisoxazol-5-yl)ureido)phenyl)cyclopropanecarboxylic acid], the IC50 turned out to be 4 nM.
For the molecule `CC(C)CN(CC(C)C)c1ccc([C@H]2C[C@H]2C(=O)O)cc1NC(=O)Nc1cc(C2CC2)no1` [Example 34, (1R,2S)-2-(3-(3-(3-cyclopropylisoxazol-5-yl)ureido)-4-(diisobutylamino)phenyl)cyclopropanecarboxylic acid], the IC50 is 2 nM.
Regarding `CC(C)CN(CC(C)C)c1ccc([C@H]2C[C@H]2C(=O)O)cc1NC(=O)Nc1cc(C(F)(F)F)no1` [Example 36, (1R,2S)-2-(4-(diisobutylamino)-3-(3-(3-(trifluoromethyl)isoxazol-5-yl)ureido)phenyl)cyclopropanecarboxylic acid], the IC50 came to 7 nM.
To `CC(C)CN(CC(C)C)c1ccc([C@@H]2C[C@@H]2C(=O)O)cc1NC(=O)Nc1cc(C(F)(F)F)no1` [Example 37, (1S,2R)-2-(4-(diisobutylamino)-3-(3-(3-(trifluoromethyl)isoxazol-5-yl)ureido)phenyl)cyclopropanecarboxylic acid] belongs 7 nM; to `Cc1ccc(CC(=O)Nc2cc([C@H]3C[C@H]3C(=O)O)ccc2N(CC(C)C)CC(C)C)cc1` [Example 60, (1R,2S)-2-(4-(diisobutylamino)-3-(2-(p-tolyl)acetamido)phenyl)cyclopropanecarboxylic acid], 21 nM.
To `Cc1cc(CC(=O)Nc2cc([C@@H]3C[C@@H]3C(=O)O)ccc2N(CC(C)C)CC(C)C)on1` [Example 63, (1S,2R)-2-(4-(diisobutylamino)-3-(2-(3-methylisoxazol-5-yl)acetamido)phenyl) cyclopropanecarboxylic acid] belongs 262 nM; to `Cc1cc(NC(=O)Nc2cc([C@@H]3C[C@@H]3C(=O)O)ccc2N(CC(C)C)CC(C)C)no1` [Example 67, (1S,2R)-2-(4-(diisobutylamino)-3-(3-(5-methylisoxazol-3-yl)ureido)phenyl)cyclopropanecarboxylic acid], 23 nM.
For `CCOC(=O)Nc1ccc(NC(=O)Nc2cc([C@@H]3C[C@@H]3C(=O)O)ccc2N(CC(C)C)CC(C)C)cc1` [Example 71, (1S,2R)-2-(4-(diisobutylamino)-3-(3-(4-((ethoxycarbonyl)amino)phenyl)ureido)phenyl)cyclopropanecarboxylic acid], the IC50 was found to be 519 nM.
As to `CC(C)CN(CC(C)C)c1ccc([C@@H]2C[C@@H]2C(=O)O)cc1NC(=O)Nc1ccc(OCC(F)(F)F)cc1` [Example 72, (1S,2R)-2-(4-(diisobutylamino)-3-(3-(4-(2,2,2-trifluoroethoxy)phenyl)ureido)phenyl)cyclopropanecarboxylic acid], the 50% inhibitory concentration (IC50) was 200 nM.
To `Cc1ccc(NC(=O)Nc2cc([C@H]3C[C@H]3C(=O)O)ccc2N(CCCC(F)(F)F)C2CCCCC2)cc1` [Example 73, (1R,2S)-2-(4-(cyclohexyl(4,4,4-trifluorobutyl)amino)-3-(3-(p-tolyl)ureido)phenyl)cyclopropanecarboxylic acid] belongs 527 nM.
To `O=C(Nc1cncnc1)Nc1cc([C@H]2C[C@H]2C(=O)O)ccc1N(CCCC(F)(F)F)C1CCCCC1` [Example 75] belongs 787 nM; to `Cc1ccc(NC(=O)Nc2cc([C@@H]3C[C@@H]3C(=O)O)ccc2N(CCCC(F)(F)F)C2CCCCC2)cc1` [Example 76, (1S,2R)-2-(4-(cyclohexyl(4,4,4-trifluorobutyl)amino)-3-(3-(p-tolyl)ureido)phenyl)cyclopropanecarboxylic acid], 338 nM; to `Cc1ncc(NC(=O)Nc2cc([C@@H]3C[C@@H]3C(=O)O)ccc2N(CC(C)C)CC(C)C)cn1` [Example 77, (1S,2R)-2-(4-(diisobutylamino)-3-(3-(2-methylpyrimidin-5-yl)ureido)phenyl)cyclopropanecarboxylic acid], 64 nM.
Turning to `O=C(Nc1cncnc1)Nc1cc([C@H]2C[C@H]2C(=O)O)ccc1N(CCC(F)(F)F)C1CCCCC1` [Example 87, (1R,2S)-2-(4-(cyclohexyl(3,3,3-trifluoropropyl)amino)-3-(3-(pyrimidin-5-yl)ureido)phenyl)cyclopropanecarboxylic acid], the concentration for half-maximal inhibition (IC50) was found to be 994 nM.
The value for `CC(C)CN(CC(C)C)c1ccc([C@H]2C[C@H]2C(=O)O)cc1NC(=O)Cc1ccc(F)cc1` [Example 117, (1R,2S)-2-(4-(diisobutylamino)-3-(2-(4-fluorophenyl)acetamido)phenyl)cyclopropanecarboxylic acid] was 97 nM; that for `Cc1ccc(CC(=O)Nc2cc([C@H]3C[C@H]3C(=O)O)ccc2N(CC(C)C)CC(C)C)cn1` [Example 118, (1R,2S)-2-(4-(diisobutylamino)-3-(2-(6-methylpyridin-3-yl)acetamido)phenyl)cyclopropanecarboxylic acid] was 126 nM; that for `Cc1cc(NC(=O)Nc2cc([C@H]3C[C@H]3C(=O)O)ccc2N(CC(C)C)C2CCCCC2)on1` [Example 129, (1R,2S)-2-(4-(cyclohexyl(isobutyl)amino)-3-(3-(3-methylisoxazol-5-yl)ureido)phenyl)cyclopropanecarboxylic acid] was 0.5 nM.
To `COC(=O)C1CC1c1ccc(N(CC(C)C)CC(C)C)c([N+](=O)[O-])c1` (stereo not drawn) [ent-1J] belongs 2 nM.

As usually defined, the IC50 is the point on the concentration scale where inhibition reaches its midpoint.
